Laboratory results reported in patent US20240059753A1, “COMPOSITIONS INCLUDING MULTI-AGONIST PEPTIDES AND METHODS OF MANUFACTURE AND USE” (Pep2Tango Therapeutics Inc., priority 2022, published 2024).
Numbered stars: 1 amine (or outer) side, 2 acyl side, 3 side chain; on linkers, the order of the positions; unused ones are H or OH. Bridge positions count the residues as written; N and C are the ends. Square brackets hold non-standard residues; d marks the D form. Side chains are listed from the residue outwards. * marks the point of attachment. C20 diacid = O=C(O)CCCCCCCCCCCCCCCCCCC(=O)*; C18 diacid = O=C(O)CCCCCCCCCCCCCCCCC(=O)*; γGlu = O=C(O)[C@H](CCC(=O)[*:2])N[*:1]; AEEA = NCCOCCOCC(=O)O; Aib = CC(C)(N)C(=O)O

T1: human calcitonin receptor (human) (UniProt P30988)
T1 sequence (looked up): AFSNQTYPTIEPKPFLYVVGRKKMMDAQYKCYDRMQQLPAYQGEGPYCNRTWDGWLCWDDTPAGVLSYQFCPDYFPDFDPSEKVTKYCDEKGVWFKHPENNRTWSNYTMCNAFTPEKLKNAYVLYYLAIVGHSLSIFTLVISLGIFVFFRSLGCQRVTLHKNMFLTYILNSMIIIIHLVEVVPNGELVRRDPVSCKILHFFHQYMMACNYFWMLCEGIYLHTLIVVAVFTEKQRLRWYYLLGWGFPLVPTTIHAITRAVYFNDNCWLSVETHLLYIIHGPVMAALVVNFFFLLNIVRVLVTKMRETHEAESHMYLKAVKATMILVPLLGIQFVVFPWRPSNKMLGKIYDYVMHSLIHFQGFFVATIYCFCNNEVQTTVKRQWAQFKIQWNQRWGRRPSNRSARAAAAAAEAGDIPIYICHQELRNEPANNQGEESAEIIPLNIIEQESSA

T2: Human Calc/RAMP3R (AMY3) (Homo sapiens, UniProt O60896+P30988)
T2 construct: expressed in transfected cells; host or cells: CHO-K1, stably transfected
T2 sequence (P30988 25-474): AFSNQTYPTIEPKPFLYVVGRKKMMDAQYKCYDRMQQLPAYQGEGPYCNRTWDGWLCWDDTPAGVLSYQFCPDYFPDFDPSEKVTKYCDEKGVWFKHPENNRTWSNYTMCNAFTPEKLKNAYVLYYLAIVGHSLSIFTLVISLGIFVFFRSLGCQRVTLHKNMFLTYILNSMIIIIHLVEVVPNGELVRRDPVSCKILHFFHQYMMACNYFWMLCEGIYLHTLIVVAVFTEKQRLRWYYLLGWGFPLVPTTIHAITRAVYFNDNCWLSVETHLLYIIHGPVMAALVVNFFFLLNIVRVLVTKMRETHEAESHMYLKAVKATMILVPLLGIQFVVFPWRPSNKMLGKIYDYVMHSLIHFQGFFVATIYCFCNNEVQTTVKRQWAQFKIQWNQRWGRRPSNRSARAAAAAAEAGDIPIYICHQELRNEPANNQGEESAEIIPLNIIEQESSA
T2 sequence (O60896 24-148 partner): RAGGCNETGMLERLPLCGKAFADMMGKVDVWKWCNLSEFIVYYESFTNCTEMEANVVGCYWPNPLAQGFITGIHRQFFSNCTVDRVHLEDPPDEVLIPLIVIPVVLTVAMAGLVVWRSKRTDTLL

T3: Human GIPR (Homo sapiens, UniProt P48546)
T3 construct: expressed in transfected cells; host or cells: CHO-K1, stably transfected
T3 sequence (P48546 22-466): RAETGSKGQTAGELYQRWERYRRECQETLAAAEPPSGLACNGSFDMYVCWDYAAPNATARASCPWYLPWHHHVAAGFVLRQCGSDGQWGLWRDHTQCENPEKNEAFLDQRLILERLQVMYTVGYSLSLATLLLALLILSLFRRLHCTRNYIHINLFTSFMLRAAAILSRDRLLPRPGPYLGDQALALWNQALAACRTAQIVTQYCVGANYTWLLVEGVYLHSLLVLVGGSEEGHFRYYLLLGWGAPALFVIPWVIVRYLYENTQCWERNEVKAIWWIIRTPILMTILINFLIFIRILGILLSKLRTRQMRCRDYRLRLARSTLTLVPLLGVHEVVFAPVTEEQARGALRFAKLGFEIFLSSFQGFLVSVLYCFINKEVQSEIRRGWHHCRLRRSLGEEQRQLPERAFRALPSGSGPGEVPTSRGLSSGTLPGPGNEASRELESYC

T4: Human CalcitoninR (Homo sapiens, UniProt P30988)
T4 construct: expressed in transfected cells; host or cells: CHO-K1, stably transfected
T4 sequence (P30988 25-474): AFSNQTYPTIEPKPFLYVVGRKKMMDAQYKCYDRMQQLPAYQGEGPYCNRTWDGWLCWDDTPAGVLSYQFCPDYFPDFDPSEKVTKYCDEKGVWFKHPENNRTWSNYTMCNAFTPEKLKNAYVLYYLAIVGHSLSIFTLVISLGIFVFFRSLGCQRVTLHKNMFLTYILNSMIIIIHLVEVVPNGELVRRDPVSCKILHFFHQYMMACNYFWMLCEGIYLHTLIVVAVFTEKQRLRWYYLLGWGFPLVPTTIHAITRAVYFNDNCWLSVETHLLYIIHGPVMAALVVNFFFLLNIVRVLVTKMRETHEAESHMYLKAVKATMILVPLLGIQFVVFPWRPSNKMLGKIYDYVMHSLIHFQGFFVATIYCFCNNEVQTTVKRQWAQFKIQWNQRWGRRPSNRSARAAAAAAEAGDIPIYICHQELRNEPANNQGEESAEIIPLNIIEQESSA


Experiments:
[1] = target: T1, human calcitonin receptor (human); test: cell-based or functional assay
[2] = target: Human GLP-1R (Homo sapiens, UniProt P43220); test: GPCR cell-based cAMP assay, human GLP-1 receptor; parameters: expressed in transfected cells; host or cells: CHO-K1, stably transfected; settings: stably transfected CHO-Kl cells, 0.1% casein
Chain of Human GLP-1R (P43220 24-463): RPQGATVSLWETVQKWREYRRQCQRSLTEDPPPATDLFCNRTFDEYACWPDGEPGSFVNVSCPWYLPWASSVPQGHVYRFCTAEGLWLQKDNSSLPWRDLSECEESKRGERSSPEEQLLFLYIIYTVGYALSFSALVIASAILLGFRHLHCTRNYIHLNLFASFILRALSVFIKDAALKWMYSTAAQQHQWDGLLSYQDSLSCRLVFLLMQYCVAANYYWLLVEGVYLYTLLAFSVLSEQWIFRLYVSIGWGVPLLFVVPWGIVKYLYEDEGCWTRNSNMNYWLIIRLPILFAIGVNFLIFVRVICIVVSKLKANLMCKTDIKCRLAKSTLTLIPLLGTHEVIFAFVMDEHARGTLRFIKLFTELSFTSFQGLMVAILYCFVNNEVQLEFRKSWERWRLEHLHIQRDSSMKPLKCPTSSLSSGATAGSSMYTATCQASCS
Protocol: (§1) Experimental protocol: Cells were seeded in a total volume of 20 μL into white walled, 384-well microplates and incubated at 37° C. overnight prior to testing. Prior to testing cell plating media was exchanged with 10 μL of Assay buffer (HBSS+10 mM HEPES). All compounds were run in assay buffer containing 0.1% casein. Briefly, intermediate dilution of sample stocks was performed to generate 4× sample in assay buffer. 5 μL of 4× sample was added to cells and incubated at 37° C. for 30 minutes. Final assay vehicle concentration was 1%. […] Microplates were read following signal generation with PerkinElmer Envision instrument for chemiluminescent signal detection.
(§2) The results are expressed as a percent efficacy relative to the maximum response of the control ligand.

[3] = target: T2, Human Calc/RAMP3R (AMY3); test: GPCR cell-based cAMP assay, human AMY3 receptor; settings: stably transfected CHO-Kl cells, 0.1% casein
Protocol: as §1, §2

[4] = target: T3, Human GIPR; test: GPCR cell-based cAMP assay, human GIP receptor; settings: stably transfected CHO-Kl cells, 0.1% casein
Protocol: as §1, §2

[5] = target: T4, Human CalcitoninR; test: GPCR cell-based cAMP assay, human calcitonin receptor; settings: stably transfected CHO-Kl cells, 0.1% casein
Protocol: as §1, §2

Molecule	EC50 (nM), cell-based cAMP assay, CHO-K1 cells [1] [nM]	EC50 [2] [nM]	EC50 [3] [nM]	EC50 [4] [nM]	EC50 [5] [nM]
Calcitonin (peptide)	0.026				
Y[Aib]EGTFTSDYSI[Aib]LDKIAQQAFVQWLIAGGPSSGAPPPSKCNTATCVLGRLSQELHRLQTYPRTNTK([AEEA-AEEA-γGlu-C18 diacid])SNTY-NH2 (disulfide 41-46 (inferred)) [SEQ ID NO. 52, Y-Aib-E-G-T-F-T-S-D-Y-S-I-Aib-LDKIAQQAFVQWLIAGGPSSGAPPPSKCNTATCVLGRLSQELHRLQTYPRTNTK*-S-N-T-Y-NH2-acetate salt (wherein K* is Lys(AEEAc-AEEAc-γ-Glu-17-carboxyheptadecanoyl))]		0.59	1.24	0.147	0.694
Y[Aib]EGTFTSDYSI[Aib]LDKIAQQAFVQWLIAGGPSSGAPPPSCNTATCVLGRLSQELHRLQTYPRTNTGK([AEEA-AEEA-γGlu-C18 diacid])NTY-NH2 (disulfide 40-45 (inferred)) [SEQ ID NO. 45, Y-Aib-E-G-T-F-T-S-D-Y-S-I-Aib-LDKIAQQAFVQWLIAGGPSSGAPPPSCNTATCVLGRLSQELHRLQTYPRTNTGK*-N-T-Y-NH2-acetate salt (wherein K* is Lys(AEEAc-AEEAc-γ-Glu-17-carboxyheptadecanoyl))]		0.416	0.333	0.041	0.106
Y-Aib-E-G-T-F-T-S-D-Y-S-I-Aib-LDKIAQQAFVQWLIAGGPSSGAPPPSCNTATCVLGRLSQELHRLQTYPRTNTGK*-N-T-Y-NH2-acetate salt (wherein K* = … (also: acetate salt) Y[Aib]EGTFTSDYSI[Aib]LDKIAQQAFVQWLIAGGPSSGAPPPSCNTATCVLGRLSQELHRLQTYPRTNTGK([γGlu-γGlu-C20 diacid])NTY-NH2		0.854	0.218	0.011	0.388
